A short description of this data set: in vitro. The note with it: human, hela cells, % viability.

On to `Cn1cc(CCNC(=O)Nc2ccc(N3CCCC3)nc2)cn1` [CBK305659], for which the viability at 28.5 h, 10 µM amounted to 92.3%.

In the case of `Cc1cc(C)cc(OCC(=O)NNC(=O)CN2C(=O)c3ccccc3C2=O)c1` [CBK262394], the viability at 28.5 h, 10 µM was 91.4%.

As to `COc1ccc2cc(COC(=O)c3cnc(C)cn3)c(Cl)nc2c1` [CBK295288], the viability at 28.5 h, 10 µM is 106%.

As for `COc1ccccc1-c1cnc2[nH]c(=O)n([C@@H](C)c3ccccc3)c2n1` [CBK064717], the viability at 28.5 h, 10 µM amounted to 93.3%.

Take `Cc1cc(=O)c(O)c(CN2CCC(C(=O)O)CC2)o1` [CBK286843]: the viability at 28.5 h, 10 µM was determined as 87.6%.

In the case of `COc1ccc2c(c1)COC1(CCN(C(=O)N[C@@H](C)c3ccccc3)CC1)O2` [CBK060757], the viability at 28.5 h, 10 µM (bulk resorufin, single well) came out at 106%.

As to `N/N=C(\CCC(=O)O)c1ccccc1` [CBK261306], the viability at 28.5 h, 10 µM was determined as 98.3%.

Consider `COCCNc1nc(-c2ccccc2)ccc1C(=O)N(C)CCN(C)C` [CBK105913], for which the viability at 28.5 h, 10 µM came to 99.3%.

Take `O=C(CO/N=C\c1cccc([N+](=O)[O-])c1)Nc1ccccc1C(=O)O` [CBK262051]: the viability at 28.5 h, 10 µM was 91.7%.

For `Cn1c(SCCOc2ccccc2Cl)nnc1-c1ccncc1` [CBK265969], the viability at 28.5 h, 10 µM worked out at 111%.

Consider `Cc1cc(C(=O)NCc2cccnc2N(C)C2CCCCC2)[nH]n1` [CBK306668], for which the viability at 28.5 h, 10 µM turned out to be 104%.

For the compound `Cc1cc(NS(=O)(=O)c2c(C)nn(C)c2Cl)n(C)n1` [CBK067245], the viability at 28.5 h, 10 µM worked out at 99.9%.

Consider `Cc1ncsc1CCOc1cc(C(F)(F)F)ccn1` [CBK115785], for which the viability at 28.5 h, 10 µM turned out to be 100%.

Take `O=C(O)CCC(=O)N[C@H]1CCN2C(=O)c3cc(-c4ccc(Cl)cc4)ccc3NC(=O)[C@H]12` [CBK289275]: the viability at 28.5 h, 10 µM came to 115%.

On to `CNC(=O)c1cccc(NC(=O)c2cc(Br)cnc2NCC2CC2)c1` [CBK076380], for which the viability at 28.5 h, 10 µM was found to be 95.5%.

`CC(C)c1ccc(-n2ncc3c(=O)[nH]cnc32)cc1` [CBK288096]: the viability at 28.5 h, 10 µM amounted to 70.7%.

Consider `O=c1oc2ccccc2n1C1CCN(Cc2nc3ccccc3n2Cc2ccccc2)CC1` [CBK286176], for which the viability at 28.5 h, 10 µM amounted to 102%.

For `CCCC(=O)N1CCC(c2cc3n(n2)[C@@H](C(F)(F)F)C[C@@H](C)N3)C1` (stereo partly shown) [CBK282237], the viability at 28.5 h, 10 µM is 99.2%.

`COC(=O)c1c(NC(=O)Cn2nc([N+](=O)[O-])c(Cl)c2C)sc2c1CCCC2` [CBK263047]: the viability at 28.5 h, 10 µM was determined as 83.9%.

As for `CC(C)CCn1c(=S)[nH]c2c(oc3ccccc32)c1=O` [CBK288504], the viability at 28.5 h, 10 µM came out at 100%.

For the compound `COc1ccc(NC(=O)c2ccc(-c3nnn[nH]3)cc2)cc1OC` [CBK295138], the viability at 28.5 h, 10 µM stood at 97.7%.

On to `CC(Sc1ccccc1)C(=O)NCCN1CCOCC1` (stereo not shown) [CBK269332], for which the viability at 28.5 h, 10 µM came out at 95.9%.

As to `Cc1ccc(C2C(C(=O)c3sc(-c4ccccc4)nc3C)=C(O)C(=O)N2CCN(C)C)o1` (stereo not shown) [CBK234004], the viability at 28.5 h, 10 µM came to 107%.

Consider `Clc1ccc(COc2nccnc2OC2CCN(Cc3ccc4c(c3)OCO4)CC2)cc1Cl` [CBK083109T], for which the viability at 28.5 h, 10 µM is 86.6%.

Consider `O=C(CCCc1ccccc1)Nc1ccccc1C(=O)O` [CBK265516], for which the viability at 28.5 h, 10 µM turned out to be 97.4%.

`Cc1ccc(S(=O)(=O)N(Cc2c(F)cccc2F)C2CCNCC2)cc1` [CBK163927T]: the viability at 28.5 h, 10 µM was 89.9%.

For `COc1ccc([C@@]23CC[C@@H](NC(=O)c4ccc(SC(F)(F)F)cc4)C[C@@H]2N(C)CC3)cc1OC` [CBK076654T], the viability at 28.5 h, 10 µM came out at 94.9%.

As for `c1coc(-c2cc3ncc4c(n3n2)CC2CCC4N2)c1` (stereo not shown) [CBK284381], the viability at 28.5 h, 10 µM is 84.7%.

On to `Cc1noc(C)c1S(=O)(=O)NC1CCN(Cc2ccccc2)CC1` [CBK062028], for which the viability at 28.5 h, 10 µM stood at 83.4%.

`CCn1c(C(C)C)nc2cc(NC(=O)Cc3c(C)noc3C)ccc21` [CBK281527]: the viability at 28.5 h, 10 µM came to 90.3%.

`CC(=O)N1c2ccc(NC(=O)C3(C)CCCO3)cc2CC1C` (stereo not shown) [CBK282702]: the viability at 28.5 h, 10 µM was found to be 98.5%.

Consider `Cc1nc(COc2ccc(F)cc2)sc1C(=O)O` [CBK305074], for which the viability at 28.5 h, 10 µM was 98%.

Consider `COc1ccc(Cl)cc1CN(C)C(=O)c1cc(C(C)C)n2ncnc2n1` [CBK307331], for which the viability at 28.5 h, 10 µM was 84.7%.

For the compound `Cc1nn(C)cc1-c1cncn1C(CCN(C)C)c1ccccc1` (stereo not shown) [CBK281987], the viability at 28.5 h, 10 µM is 92.3%.

In the case of `CNC(=O)N1CC(=O)N(Cc2cccc(Cl)c2)C1=O` [CBK001918], the viability at 28.5 h, 10 µM was 104%.

Take `O=C1CCCC[C@]2(CN(Cc3ccccc3)C[C@H]2c2cccnc2)N1` [CBK283342]: the viability at 28.5 h, 10 µM came out at 106%.

For the compound `Fc1ccc(Oc2nccnc2N2CCN(CCOc3cccnc3)CC2)cc1` [CBK083037T], the viability at 28.5 h, 10 µM turned out to be 98.7%.

Regarding `COc1ncc(-c2nccnc2OCc2cccs2)c(OC)n1` [CBK106750], the viability at 28.5 h, 10 µM was 102%.

For `O=C(O)CNS(=O)(=O)c1ccc(Cl)c(Cl)c1` [CBK266981], the viability at 28.5 h, 10 µM is 86.2%.

For `Cc1ccccc1C1(O)CCN(CC(O)c2ccc3c(c2)OCCCO3)CC1` (stereo not shown) [CBK286332], the viability at 28.5 h, 10 µM amounted to 103%.

For the compound `O=C(O)C[C@@H]1CCN(C(=O)c2ccc3c(c2)OCO3)C[C@@H]1CC1=NCCc2ccccc21` [CBK289160], the viability at 28.5 h, 10 µM was 110%.

For the compound `COc1cc(F)ccc1-c1ccnc2[nH]c(=O)ccc12` [CBK073727], the viability at 28.5 h, 10 µM was 74.2%.

Take `O=C(COc1ccccc1)NCc1ccc(OC2CCNCC2)cc1` [CBK028425T]: the viability at 28.5 h, 10 µM came to 98.2%.

Take `Cc1nsc2c1[C@H]1[C@H](O)[C@H](O)C[C@H]1C1(CCC1)N2` [CBK303258]: the viability at 28.5 h, 10 µM stood at 100%.

As for `CCn1c2ccccc2c2cc(CN3CCN(Cc4c[nH]c5ccccc45)CC3)ccc21` [CBK263167], the viability at 28.5 h, 10 µM is 89.3%.

Consider `COc1ccc(Oc2cncc(OC3CCN(Cc4ccc(Cl)c(Cl)c4)C3)n2)cc1OC` (stereo not shown) [CBK084391], for which the viability at 28.5 h, 10 µM is 115%.

For the compound `CN(C)S(=O)(=O)N1CCN(Cc2ccccc2)CC1` [CBK263638], the viability at 28.5 h, 10 µM came out at 109%.

Consider `COc1ccc(C(=O)N/C(=C/c2ccc([N+](=O)[O-])cc2)c2nc3ccc(C(F)(F)F)cc3[nH]2)cc1OC` [CBK263199], for which the viability at 28.5 h, 10 µM was 104%.

`O=C(O)c1cc2c(s1)CN(C1CCCCC1)C2` [CBK286885]: the viability at 28.5 h, 10 µM is 96.2%.

For `OCCNCCOc1ccc(Cl)cc1Br` [CBK265083G], the viability at 28.5 h, 10 µM was 116%.

As to `O=C1NC2(Nc3ccccc31)C(=O)N(Cc1cccc3ccccc13)c1ccccc12` (stereo not shown) [CBK264954], the viability at 28.5 h, 10 µM amounted to 108%.

`NC(=O)C1CCN(C(=S)NC2CC3C=CC2C3)CC1` (stereo not shown) [CBK085970]: the viability at 28.5 h, 10 µM turned out to be 97.4%.

Regarding `O=C(c1cnn(-c2ccc(Cl)cc2Cl)c1)N1CCOCC1c1ncon1` (stereo not shown) [CBK304231], the viability at 28.5 h, 10 µM amounted to 84.5%.

On to `CS(=O)(=O)N1CCN(c2ccccc2NC(=O)CSc2ccc(Cl)cc2)CC1` [CBK267607], for which the viability at 28.5 h, 10 µM came out at 83.7%.

Regarding `COCOc1ccc(-c2ncc(OC)nc2NC(=O)c2cc3ccccc3s2)cc1` [CBK145250], the viability at 28.5 h, 10 µM was 103%.

Consider `O=c1ccc2c(-c3ccccc3)ccnc2[nH]1` [CBK073723], for which the viability at 28.5 h, 10 µM came to 94.2%.

For `CC(CC(=O)N1CCCC(c2cc3cccnc3[nH]2)C1)n1cccn1` (stereo not shown) [CBK284996], the viability at 28.5 h, 10 µM was determined as 86.2%.

With `CC(C)(C)NC(=O)c1cccc(N2C(=O)c3ccc(C(=O)O)cc3C2=O)c1` [CBK287123], the viability at 28.5 h, 10 µM turned out to be 86.8%.

On to `COc1ccc(-c2nnc(SC(C)C(=O)Nc3cc(C)no3)n2CC2CCCO2)cc1` (stereo not shown) [CBK297879], for which the viability at 28.5 h, 10 µM came out at 84.8%.

Take `O=C(NC/C=C/c1cn(C2CC(O)C(CO)O2)c(=O)[nH]c1=O)C(F)(F)F` (stereo not shown) [CBK201249]: the viability at 28.5 h, 10 µM came to 109%.

In the case of `O=C(CN1C(=O)c2ccccc2C1=O)Nc1cccc(C(=O)O)c1` [CBK287040], the viability at 28.5 h, 10 µM was 110%.

As to `O=C(Nc1cc(N2CCCS2(=O)=O)ccc1F)c1cccnc1O` [CBK306320], the viability at 28.5 h, 10 µM came out at 97.4%.

Consider `COc1cccc(N2C(=O)N[C@@H]3CCN(S(=O)(=O)c4ccccc4)[C@@H]3C2=O)c1` [CBK289283], for which the viability at 28.5 h, 10 µM was found to be 111%.

Turning to `O=C(Cn1c(C(F)(F)F)nc2ccccc21)NCCN1CCOCC1` [CBK267339], the viability at 28.5 h, 10 µM is 100%.

In the case of `Cn1ncnc1CCNS(=O)(=O)c1cccc(C(=O)N2CCCCC2)c1` [CBK306731], the viability at 28.5 h, 10 µM turned out to be 101%.

With `CCN1CCCC1CNC(=O)c1cc([N+](=O)[O-])c(N(C)C)cc1OC` (stereo not shown) [CBK262595], the viability at 28.5 h, 10 µM came to 95.8%.

For the compound `CCn1c(=O)n(CC(=O)NCc2cccs2)c2cccnc21` [CBK283811], the viability at 28.5 h, 10 µM came to 88.3%.

For the compound `COc1ccc(Nc2nnc(-c3ccc(C(N)=O)cc3)c3ccccc23)cc1` [CBK264246], the viability at 28.5 h, 10 µM is 92.7%.

Consider `CCCS(=O)(=O)N1CCN(C(=O)c2cccnc2)CC1` [CBK264239], for which the viability at 28.5 h, 10 µM turned out to be 93.8%.

For the compound `Cc1cccc(N2C(=O)SC(N(CC(=O)O)c3cccc(C)c3)C2=O)c1` (stereo not shown) [CBK287095], the viability at 28.5 h, 10 µM was 87.6%.

For the compound `CCOC(=O)Cn1c(CN2CCC(Cc3ccccc3)CC2)nc2c1c(=O)n(C)c(=O)n2C` [CBK269454], the viability at 28.5 h, 10 µM was determined as 89.8%.

Consider `CC(=O)NCCNc1ccc(C(=O)O)cc1[N+](=O)[O-]` [CBK264184], for which the viability at 28.5 h, 10 µM was found to be 87.8%.

Consider `Cc1cc(CN(C)C(=O)c2cccc(NC(=O)C3CCCCC3)c2)no1` [CBK305722], for which the viability at 28.5 h, 10 µM came to 92.6%.

On to `COc1ccc(OC[C@@H](N)C(C)C)cc1` [CBK284299], for which the viability at 28.5 h, 10 µM amounted to 93.9%.

For `Cc1ccc(CN(C)C(C)C(=O)NCc2cccs2)cc1` (stereo not shown) [CBK295663], the viability at 28.5 h, 10 µM is 103%.

In the case of `Cc1ccc(-n2nnc3c(SCC(=O)Nc4ccc(F)cc4)ncnc32)cc1` [CBK287542], the viability at 28.5 h, 10 µM amounted to 112%.

Take `C=Cn1cc(CN2CCN(C3CCCCC3)C(=O)C2)c(C)n1` [CBK282561]: the viability at 28.5 h, 10 µM worked out at 109%.

Consider `CC(C)C[C@H]1NC(=O)[C@@H]2C[C@@H](NC(=O)CS(=O)(=O)c3ccccc3)CCN2C1=O` [CBK289554], for which the viability at 28.5 h, 10 µM was found to be 89.1%.

For `COCC(=O)N1CCC(Oc2ccc3ncccc3c2)(C(=O)O)CC1` [CBK307340], the viability at 28.5 h, 10 µM came to 103%.

Source of the values: paper PMC12040169 (PLOS Biology, 2025).
